Data set [1] has as its system A-549 human lung carcinoma. As to the kind of experiment: Cytotoxicity screening against A-549 cell culture. The class given is cell-based. The settings on record: A-549 cells, three days of incubation, Crystal Violet. The text has this:
(§1) Cell Cultures. Cells were maintained in logarithmic phase of growth in eagle's Minimum Essential Medium, with Earle's Balanced Salts, with […] L-glutamine, with non-essential amino acids, without sodium bicarbonate (EMEM/neaa); supplemented with 10% Fetal Calf Serum (FCS), 10^−2 M sodium bicarbonate and 0,1 g/l penicillin-G+streptomycin sulfate.
(§2) A simple screening procedure has been carried out to determine and compare the antitumor activity of these compounds, using an adapted form of the method described by Bergeron et al. (1984)(1). The antitumor cells employed have been P-388 (suspension culture of a lymphoid neoplasm from DBA/2 mouse), A0549 (monolayer culture of a human lung carcinoma), HT-29 (monolayer culture of a human colon carcinoma) and MEL-28 (monolayer culture of a human melanoma).
(§3) A-549, HT-29 and MEL-28 cells were seeded into 16 mm wells at 2×10^4 cells per well in 1 ml aliquots of MEM 10FCS containing the indicated concentration of drug. A separate set of cultures without drug was seeded as control growth to ensure that cells remained in exponential phase of growth. All determinations were carried out in duplicate. After three days of incubation at 37° C., 10% CO2 in a 98% humid atmosphere, the wells were stained with 0.1% Crystal Violet. An approximately IC50 was determined by comparing the growth in wells with drug to the growth in wells control.

Data set [2] in a line: Stability observations (light, air, handling). The settings on record: N-oxides, then o-quinolinoquinone, form. The class given is physicochemical. The method, then:
Halitulin (2) was analyzed for C35H40N4O4 by HREIMS (m/z 580.3054, 100% Δmmu−0.5) confirmed by positive and negative FABMS (m/z 581 and 579, respectively). […] The duplicated part, according to the integration of the proton signals, was determined to be the aromatic portion of the molecule. Comparing the NMR data of the aliphatic part of 2 (Table 1) with haliclorensin (1)^7, together with the COSY, TOCSY, and HMBC data, established their identity. The incorporation of 1 in halitulin was further supported by the two MS fragments at m/z 168 (C11H22N+, 48%) and m/z/399 (MW^+-C12H24N, 90%), resulting from the preferable αβ to the aliphatic nitrogen-atoms^1 fragmentation at C-13,14 and C-12,13 respectively. Determination of the haliclorensin moiety in 2 left C22H14N3O4 (including the adjoining N-atom) with 17 degrees of unsaturation to be accounted for. […] Indeed, acetylation of 2, with a 1:1 mixture of Ac2O/pyridine, overnight at room temperature., afforded a very unstable tetra phenol acetate (3), on the basis of the HREIMS which gave the suitable molecular ion and also four subsequential losses of 42 mass units, and no loss of 60 mass units^13. The four phenol acetate groups were in full agreement with the 1773 cm^−1 IR absorption and the new methyls in the proton NMR. […]

Data set [3] deals with HT-29 human colon carcinoma. As to the kind of experiment: Cytotoxicity screening against HT-29 cell culture. The class given is cell-based. The settings on record: HT-29 cells, three days of incubation, Crystal Violet.
From the text: as §1, §2, §3

The test system of data set [4] is P-388 murine leukemia. As to the kind of experiment: Cytotoxicity screening against P-388 cell culture. It is filed as cell-based. To be noted: Mus musculus, P388; P-388 cells, approximate IC50 from growth vs control wells.
From the text: as §1, §2
P-388 cells were seeded into 16 mm wells at 1×10^4 cells per well in 1 ml aliquots of MEM 5FCS containing the indicated concentration of drug. A separate set of cultures without drug was seeded as control growth to ensure that cells remained in exponential phase of growth. All a 98% humid atmosphere, an approximately IC50 was determined by comparing the growth in wells with drug to the growth in wells control.

In data set [5] the test system is MEL-28 human melanoma. As to the kind of experiment: Cytotoxicity screening against MEL-28 cell culture. The class given is cell-based. To be noted: SK-MEL-28, 72 h, MEL-28 cells, three days of incubation, Crystal Violet.
From the text: as §1, §2, §3

Data set [6] in a line: Cytotoxic activity, test not specified. The class given is cell-based. The settings on record: qualitative statement, cell line not given.

From patent US6635656B1, “Cytotoxic alkaloids halitulin” (Pharma Mar, S.A., priority 1998, dated 2003) come the findings set out here.

The term IC50 denotes the concentration at which inhibition is half-maximal.

Structures are written as SMILES. In brackets after ≈: the same amount, converted by molar mass. Read-outs that look alike come from different tables or passages of the source.

In the case of `CC1CCCCCCCN(CCCn2cc(-c3cc(O)c(O)c4ncccc34)c(-c3cc(O)c(O)c4ncccc34)c2)C1` (centres unmarked) [Halitulin, halitulin], the IC50 turned out to be 0.0125 mg/L (≈ 0.0215 µM) in data set [1]; 0.012 mg/L (≈ 0.0207 µM) in data set [1] (Homo sapiens, A549, 72 h, read-out: IC50); 0.0125 mg/L (≈ 0.0215 µM) in data set [3]; 0.012 mg/L (≈ 0.0207 µM) in data set [3] (Homo sapiens, HT-29, 72 h, read-out: IC50); 0.025 mg/L (≈ 0.043 µM) in data set [4]; 0.025 mg/L (≈ 0.043 µM) in data set [5]. For the same molecule, the “stability to light and air” value in data set [2] is “sensitive to light and air”.

In the case of `CC1CCCCCN(CCCN)C1` (centres unmarked) [haliclorensin, N-(3′-arninopropyl)-3-methylazacyclodecane], in data set [6], the cytotoxic activity result is “inactive”.
